Assay results as given in ChEMBL document CHEMBL1926647, “Discovery of 4-aminomethylphenylacetic acids as γ-secretase modulators via a scaffold design approach” (Bioorg Med Chem Lett, 2011).
Blank lines part the entries; values can stand above or below the compound they belong to. Activity calls are given as the source filed them. No cut-off for these calls is given here.

Key:
[1] = Cmax in dog at 0.5 mg/kg; assay type: ADME, organism-based, Canis lupus familiaris; set-up: dose 0.5 mg/kg; settings: in vivo
Mus musculus [2] = assay: Inhibition of gamma-secretase-mediated cleavage of APP in wild type CF1 mouse brain assessed as inhibition of amyloid beta42 production at 12.5 mg/kg, po after 4 hrs by ELISA; assay type: functional; settings: Mus musculus, CF1, Brain, po, 4 h
Homo sapiens = species: Homo sapiens; assay: Liver blood flow in human; assay type: ADME, organism-based
[3] = Drug uptake in wild type CF1 mouse plasma at 30 mg/kg, po after 4 hrs; assay type: ADME, organism-based; set-up: dose 30 mg/kg, route oral
Cytochrome P450 1A2 = molecular target: T1, Cytochrome P450 1A2 (Homo sapiens, UniProt P05177); assay: Inhibition of human CYP1A2; assay type: ADME
T1 sequence (P05177 whole entry): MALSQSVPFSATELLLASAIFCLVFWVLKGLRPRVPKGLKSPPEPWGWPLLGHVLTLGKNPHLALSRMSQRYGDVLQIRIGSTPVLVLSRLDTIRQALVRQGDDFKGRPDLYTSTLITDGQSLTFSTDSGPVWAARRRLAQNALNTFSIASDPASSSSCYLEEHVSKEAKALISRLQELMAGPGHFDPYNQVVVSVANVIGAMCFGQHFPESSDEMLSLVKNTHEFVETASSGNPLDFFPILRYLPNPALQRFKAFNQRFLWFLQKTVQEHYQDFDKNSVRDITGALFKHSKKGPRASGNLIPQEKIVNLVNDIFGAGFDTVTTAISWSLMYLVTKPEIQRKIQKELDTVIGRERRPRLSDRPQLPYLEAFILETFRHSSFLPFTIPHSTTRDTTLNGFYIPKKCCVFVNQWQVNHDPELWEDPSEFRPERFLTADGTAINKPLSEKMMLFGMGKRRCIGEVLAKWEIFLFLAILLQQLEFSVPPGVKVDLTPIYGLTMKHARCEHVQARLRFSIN

Rattus norvegicus [4] = species: Rattus norvegicus; assay: Liver blood flow in rat; assay type: ADME, organism-based
Rattus norvegicus [5] = assay: Dose normalised AUC in F344 rat at 2 mg/kg; assay type: ADME, organism-based; set-up: dose 2 mg/kg; settings: in vivo
[6] = Clearance in dog at 0.5 mg/kg; assay type: ADME, organism-based, Canis lupus familiaris; set-up: dose 0.5 mg/kg; settings: in vivo
[7] = Ratio of drug level in brain to plasma in wild type CF1 mouse at 30 mg/kg, po after 4 hrs; assay type: ADME, organism-based; set-up: dose 30 mg/kg, route oral; settings: read-out: BPR
Caco-2 = assay: Ratio of permeability from basolateral to apical side to apical to basolateral side in human Caco2 cells; assay type: ADME, cell-based
[8] = Clearance in F344 rat at 2 mg/kg; assay type: ADME, organism-based; set-up: dose 2 mg/kg; settings: in vivo
[9] = Drug uptake in wild type CF1 mouse brain at 30 mg/kg, po after 4 hrs; assay type: ADME, organism-based; set-up: dose 30 mg/kg, route oral; settings: read-out: Drug uptake
Cytochrome P450 2C19 = Cytochrome P450 2C19 (Homo sapiens, UniProt P33261); assay: Inhibition of human CYP2C19; assay type: ADME
[10] = molecular target: Voltage-gated inwardly rectifying potassium channel KCNH2 (Homo sapiens, UniProt Q12809); assay: Inhibition of human ERG at 10 uM
[11] = Drug uptake in wild type CF1 mouse brain at 12.5 mg/kg, po after 4 hrs; assay type: ADME, organism-based; set-up: dose 12.5 mg/kg, route oral; settings: read-out: Drug uptake
[12] = Modulation of gamma-secretase expressed in CHO cells co-expressing APP V717F mutant assessed as reduction in amyloid beta42 production after 17 hrs by ELISA; assay type: cell-based
Cytochrome P450 2D6 = Cytochrome P450 2D6 (Homo sapiens, UniProt P10635); assay: Inhibition of human CYP2D6; assay type: ADME
[13] = Half life in dog at 0.5 mg/kg; assay type: ADME, organism-based, Canis lupus familiaris; set-up: dose 0.5 mg/kg; settings: in vivo
Canis familiaris = assay: Dose normalised AUC in dog at 0.5 mg/kg; assay type: ADME, organism-based, Canis lupus familiaris; set-up: dose 0.5 mg/kg; settings: in vivo
Cytochrome P450 2C9 = Cytochrome P450 2C9 (Homo sapiens, UniProt P11712); assay: Inhibition of human CYP2C9; assay type: ADME
Cytochrome P450 3A4 = Cytochrome P450 3A4 (Homo sapiens, UniProt P08684); assay: Inhibition of human CYP3A4; assay type: ADME
[14] = Half life in F344 rat at 2 mg/kg; assay type: ADME, organism-based; set-up: dose 2 mg/kg; settings: in vivo
Mus musculus [15] = assay: Inhibition of gamma-secretase-mediated cleavage of APP in wild type CF1 mouse brain assessed as inhibition of amyloid beta42 production at 30 mg/kg, po after 4 hrs by ELISA; assay type: functional; settings: for inhibition (INH): 30 mg/kg; for inhibition in vivo at 30 mg/kg: Mus musculus, CF1, Brain, po, 4 h
[16] = Apparent permeability from apical to basolateral side in human Caco2 cells; assay type: ADME, cell-based; settings: caco-2
[17] = Modulation of gamma-secretase expressed in CHO cells co-expressing polyhistidine-tagged APP695NL I-his with FAD-linked Swedish and London mutation assessed as reduction in amyloid beta42 production after 2 hrs by ELISA; assay type: cell-based
Mus musculus [18] = assay: Inhibition of gamma-secretase-mediated cleavage of APP in orally dosed wild type CF1 mouse brain assessed as inhibition of amyloid beta42 production after 4 hrs by ELISA; assay type: functional, organism-based
[19] = Modulation of gamma-secretase-mediated cleavage of APP assessed as reduction in amyloid beta42 production
Mus musculus [20] = assay: Inhibition of gamma-secretase-mediated cleavage of APP in wild type CF1 mouse brain assessed as inhibition of amyloid beta42 production at 50 mg/kg, po after 4 hrs by ELISA; assay type: functional
[21] = Drug uptake in wild type CF1 mouse brain at 50 mg/kg, po after 4 hrs; assay type: ADME, organism-based; set-up: dose 50 mg/kg, route oral; settings: read-out: Drug uptake

Chain of Cytochrome P450 2D6 (P10635 whole entry): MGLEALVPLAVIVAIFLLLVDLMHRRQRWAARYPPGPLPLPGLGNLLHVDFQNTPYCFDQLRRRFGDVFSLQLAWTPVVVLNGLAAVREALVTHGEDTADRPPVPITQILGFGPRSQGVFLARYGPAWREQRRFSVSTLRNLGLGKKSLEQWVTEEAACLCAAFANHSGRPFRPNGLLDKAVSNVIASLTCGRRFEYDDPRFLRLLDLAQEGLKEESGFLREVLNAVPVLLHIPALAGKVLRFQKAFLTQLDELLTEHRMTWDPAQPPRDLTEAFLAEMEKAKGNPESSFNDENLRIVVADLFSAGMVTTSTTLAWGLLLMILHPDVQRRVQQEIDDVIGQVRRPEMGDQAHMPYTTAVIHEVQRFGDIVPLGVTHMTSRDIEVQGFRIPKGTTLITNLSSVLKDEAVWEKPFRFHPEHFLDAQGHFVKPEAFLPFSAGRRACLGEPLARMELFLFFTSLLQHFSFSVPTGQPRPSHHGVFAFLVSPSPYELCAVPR
Chain of Cytochrome P450 2C9 (P11712 whole entry): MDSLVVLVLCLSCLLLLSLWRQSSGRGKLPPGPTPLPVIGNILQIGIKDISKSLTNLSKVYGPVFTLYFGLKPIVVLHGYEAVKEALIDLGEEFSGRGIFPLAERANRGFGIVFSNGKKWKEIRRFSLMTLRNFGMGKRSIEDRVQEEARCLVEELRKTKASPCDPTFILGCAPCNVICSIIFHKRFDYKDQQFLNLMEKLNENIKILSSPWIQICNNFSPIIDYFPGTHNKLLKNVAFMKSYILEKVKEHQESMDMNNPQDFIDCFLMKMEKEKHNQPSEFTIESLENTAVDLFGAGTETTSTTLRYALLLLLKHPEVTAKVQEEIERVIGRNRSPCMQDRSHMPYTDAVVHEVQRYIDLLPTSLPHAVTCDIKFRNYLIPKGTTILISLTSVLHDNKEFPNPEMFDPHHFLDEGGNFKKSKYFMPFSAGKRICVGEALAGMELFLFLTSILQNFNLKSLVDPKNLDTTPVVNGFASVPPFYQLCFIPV
Chain of Voltage-gated inwardly rectifying potassium channel KCNH2 (Q12809 whole entry): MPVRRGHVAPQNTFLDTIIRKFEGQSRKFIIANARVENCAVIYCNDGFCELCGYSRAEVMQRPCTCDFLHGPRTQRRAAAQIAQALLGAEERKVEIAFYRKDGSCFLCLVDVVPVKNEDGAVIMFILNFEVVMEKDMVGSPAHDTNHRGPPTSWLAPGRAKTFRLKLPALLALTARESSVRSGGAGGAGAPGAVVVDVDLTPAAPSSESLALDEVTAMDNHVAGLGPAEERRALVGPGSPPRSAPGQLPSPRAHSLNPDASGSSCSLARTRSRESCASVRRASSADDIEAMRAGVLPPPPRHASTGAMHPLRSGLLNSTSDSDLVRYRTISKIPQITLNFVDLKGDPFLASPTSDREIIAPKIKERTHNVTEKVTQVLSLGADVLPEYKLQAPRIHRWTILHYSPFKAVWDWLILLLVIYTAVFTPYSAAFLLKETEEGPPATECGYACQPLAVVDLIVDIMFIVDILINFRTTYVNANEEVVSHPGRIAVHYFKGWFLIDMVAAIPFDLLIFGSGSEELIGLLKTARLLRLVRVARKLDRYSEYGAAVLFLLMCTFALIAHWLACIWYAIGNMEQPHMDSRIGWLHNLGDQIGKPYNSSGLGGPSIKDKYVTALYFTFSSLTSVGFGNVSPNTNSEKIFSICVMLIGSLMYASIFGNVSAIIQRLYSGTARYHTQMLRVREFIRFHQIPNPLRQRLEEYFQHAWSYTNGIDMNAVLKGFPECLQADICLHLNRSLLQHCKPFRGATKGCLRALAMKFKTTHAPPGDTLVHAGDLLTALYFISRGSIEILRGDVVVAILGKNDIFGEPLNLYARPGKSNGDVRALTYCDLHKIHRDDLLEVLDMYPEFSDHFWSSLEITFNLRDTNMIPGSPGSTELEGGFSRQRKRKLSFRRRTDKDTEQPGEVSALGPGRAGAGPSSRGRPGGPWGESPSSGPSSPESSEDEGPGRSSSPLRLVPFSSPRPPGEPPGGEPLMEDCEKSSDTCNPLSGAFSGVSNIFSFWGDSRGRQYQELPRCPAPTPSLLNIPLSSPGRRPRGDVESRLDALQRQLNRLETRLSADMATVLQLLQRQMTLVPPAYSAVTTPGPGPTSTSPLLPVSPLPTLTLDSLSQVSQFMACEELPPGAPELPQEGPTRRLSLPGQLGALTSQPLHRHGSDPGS
Chain of Cytochrome P450 2C19 (P33261 whole entry): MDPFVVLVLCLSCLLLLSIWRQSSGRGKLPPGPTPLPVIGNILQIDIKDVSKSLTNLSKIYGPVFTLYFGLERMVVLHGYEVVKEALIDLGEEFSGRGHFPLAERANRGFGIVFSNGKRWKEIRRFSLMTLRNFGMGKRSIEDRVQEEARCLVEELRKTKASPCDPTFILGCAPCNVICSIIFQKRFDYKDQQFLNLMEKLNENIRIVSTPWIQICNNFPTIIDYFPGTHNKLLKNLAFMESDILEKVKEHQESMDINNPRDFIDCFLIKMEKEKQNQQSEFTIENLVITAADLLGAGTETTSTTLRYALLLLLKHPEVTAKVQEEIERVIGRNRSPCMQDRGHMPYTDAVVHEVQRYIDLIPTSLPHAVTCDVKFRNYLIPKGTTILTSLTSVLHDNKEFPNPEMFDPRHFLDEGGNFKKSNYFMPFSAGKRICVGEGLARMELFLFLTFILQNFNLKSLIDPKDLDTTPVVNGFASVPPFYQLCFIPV
Chain of Cytochrome P450 3A4 (P08684 whole entry): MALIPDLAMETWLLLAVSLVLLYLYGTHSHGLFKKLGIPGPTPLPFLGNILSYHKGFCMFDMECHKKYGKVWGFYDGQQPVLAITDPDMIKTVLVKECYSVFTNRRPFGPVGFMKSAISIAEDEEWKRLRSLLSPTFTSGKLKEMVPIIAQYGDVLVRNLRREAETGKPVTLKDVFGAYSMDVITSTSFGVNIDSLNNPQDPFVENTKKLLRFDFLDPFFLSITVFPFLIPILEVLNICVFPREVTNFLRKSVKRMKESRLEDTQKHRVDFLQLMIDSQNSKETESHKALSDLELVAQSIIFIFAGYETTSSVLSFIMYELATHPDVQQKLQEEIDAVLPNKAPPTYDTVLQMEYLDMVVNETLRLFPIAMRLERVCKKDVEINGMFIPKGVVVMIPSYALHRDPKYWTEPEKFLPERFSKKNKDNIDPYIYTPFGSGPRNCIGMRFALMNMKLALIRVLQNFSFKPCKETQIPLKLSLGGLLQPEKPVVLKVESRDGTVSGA

SMILES: CC(C)(C)CC(c1ccc(CC(=O)O)cc1-c1ccc(C(F)(F)F)cc1)N1CCC(C(F)(F)F)CC1 (racemic) [listing 1 of 2 here]
Cmax [1]: 1120 ng/mL
inhibition in vivo at 12.5 mg/kg (Mus musculus [2]): 25%
QH (Homo sapiens): 39%
concentration at 4 h [3]: 37 µM
IC50 (Cytochrome P450 1A2): > 10000 nM
QH (Rattus norvegicus [4]): 31%
AUC/dose (Rattus norvegicus [5]): 5495 ng·kg·h/mL/mg
clearance [6]: 0.6 mL/min/kg
Kp at 4 h [7]: 1
Ratio (Caco-2): 1.9
clearance [8]: 2.5 mL/min/kg
concentration at 4 h [9]: 32 µM
IC50 (Cytochrome P450 2C19): > 10000 nM
inhibition (INH) [10]: Not Active
concentration at 4 h [11]: 9 µM
EC50 [12]: 630 nM
IC50 (Cytochrome P450 2D6): > 10000 nM
half-life [13]: 10.1 h
AUC/dose (Canis familiaris): 28712 ng·kg·h/mL/mg
IC50 (Cytochrome P450 2C9): > 10000 nM
IC50 (Cytochrome P450 3A4): > 10000 nM
half-life [14]: 9.6 h
inhibition (INH) (Mus musculus [15]): 50%
Papp A→B [16]: 16 ×10⁻⁶ cm/s

SMILES: C[C@@H](C(=O)O)c1ccc(-c2ccccc2)c(F)c1 [TARENFLURBIL]
EC50 [17]: 300000 nM

SMILES: CC(C)CCC(c1ccc(CC(=O)O)cc1-c1ccc(C(F)(F)F)cc1)N1CC[C@H](F)C1 (stereo partly drawn)
EC50 [12]: 5900 nM

SMILES: CC(C)CCC(c1ccc(C(C)C(=O)O)cc1-c1ccc(C(F)(F)F)cc1)N1CCC(C(F)(F)F)CC1 (stereo not drawn)
concentration at 4 h [3]: 22 µM
concentration at 4 h [9]: 13 µM
EC50 [12]: 340 nM
inhibition in vivo at 30 mg/kg (Mus musculus [15]): 35%

SMILES: CC(C)CCC(c1ccc(C(CC(C)C)C(=O)O)cc1-c1ccc(C(F)(F)F)cc1)N1CCC(C(F)(F)F)CC1 (stereo not drawn)
concentration at 4 h [3]: 14 µM
concentration at 4 h [9]: 4 µM
EC50 [12]: 210 nM
inhibition in vivo at 30 mg/kg (Mus musculus [15]): 21%

SMILES: CC(C)(C)CC(c1ccc(CC(=O)O)cc1-c1ccc(C(F)(F)F)cc1)N1CCC(C(F)(F)F)CC1 (racemic) [listing 2 of 2 here]
inhibition (Mus musculus [18]): Dose-dependent effect

SMILES: CC(C)CCC(NC1CCC(C(C)(C)C)CC1)c1ccc(CC(=O)O)cc1-c1ccc(C(F)(F)F)cc1 (stereo not drawn)
EC50 [12]: 450 nM

SMILES: CC(C)(C)CC(c1ccc(CC(=O)O)cc1-c1ccc(C(F)(F)F)cc1)N1CCC(C(F)(F)F)CC1 (single isomer, unassigned; enantiomer 1)
IC50 [12]: 700 nM
inhibition (INH) (Mus musculus [15]): 25%

SMILES: O=C(O)Cc1ccc(C(CC2CCCCC2)N2CCC(C(F)(F)F)CC2)c(-c2ccc(C(F)(F)F)cc2)c1 (stereo not drawn)
concentration at 4 h [3]: 25 µM
concentration at 4 h [9]: 18 µM
EC50 [12]: 540 nM
inhibition in vivo at 30 mg/kg (Mus musculus [15]): 30%

More lines, main results first:

EC50 [12]: 10000 nM
SMILES: CC(C)CCC(c1ccc(CC(=O)O)cc1-c1ccc(C(F)(F)F)cc1)N1CCC(C)CC1 (stereo not drawn)

concentration at 4 h [3]: 21 µM
concentration at 4 h [9]: 13 µM
EC50 [12]: 460 nM
SMILES: CC(C)CCC(c1ccc(C(C)(C)C(=O)O)cc1-c1ccc(C(F)(F)F)cc1)N1CCC(C(F)(F)F)CC1 (stereo not drawn)
inhibition in vivo at 30 mg/kg (Mus musculus [15]): 20%

EC50 [12]: 520 nM
SMILES: CC(C)CCC(c1ccc(CC(=O)O)cc1-c1ccc(C(F)(F)F)cc1)N1CCCC(C(F)(F)F)C1 (mixture of isomers)

EC50 [12]: > 10000 nM
SMILES: O=C(O)Cc1ccc(CN2CCC(C(F)(F)F)CC2)c(-c2ccc(C(F)(F)F)cc2)c1

EC50 [19]: 40000 nM
SMILES: O=C(O)C1(c2ccc(-c3ccc(Cl)c(Cl)c3)c(F)c2)CC1

concentration at 4 h [21]: 0.7 µM
EC50 [12]: 120 nM
SMILES: CC(C)CCN(Cc1ccc(C(CC(C)C)C(=O)O)cc1-c1ccc(C(F)(F)F)cc1)[C@H]1CC[C@H](C(C)(C)C)CC1 (mixture of isomers)
inhibition (Mus musculus [20]): inactive
